# Patent publication US20220031684A1, “PROPHYLACTIC EFFICACY OF SEROTONIN 4 RECEPTOR AGONISTS AGAINST STRESS” (THE TRUSTEES OF COLUMBIA UNIVERSITY IN THE CITY OF NEW YORK, priority 2019, published 2022)
# Assays:
# C57BL/6NTac mice = assay: Elevated plus maze (EPM) in CORT model; format: in vivo; conditions: male C57BL/6NTac; Flx 18 mg/kg/day or RS-67,333 1.5 mg/kg/day for 3 weeks prior to CORT
# Experimental: This chronic CORT elevation dysregulates the hypothalamic-pituitary-adrenal axis (HPA) in a manner similar to that observed in clinical depression. The dose and duration of CORT treatment was selected based on previous studies. CORT (35 μg/ml, equivalent to about 5 mg/kg/day) dissolved in 0.45% hydroxypropyl-o-cyclodextrin (0-CD) or vehicle (VEH) (0.45% j-CD) was available ad libitum in the drinking water in opaque bottles to protect it from light. VEH- and CORT-treated water was changed every 3 days to prevent possible degradation. Contextual Fear Conditioning (CFC): A 3-shock CFC procedure was administered as previously published. Briefly, mice were placed into context A and administered 3 2-s shocks (0.75 mA) at 180 s, 240 s or 300 s following placement into context A. Mice were removed from the context 15 s following the termination of shock (at 317 s). For context retrieval, mice were placed back into context A for 300 s. Electrophysiology: Electrophysiology was conducted as previously described. Statistical Analysis: Results from data analyses are expressed as means±SEM. Alpha was set to 0.05 for all analyses. Data were analyzed using GraphPad Prism v7.0 or v8.0. For all experiments, unless otherwise noted, one- or two-way ANOVAs with repeated-measures were applied to the data as appropriate. Significant main effects and/or interactions were followed by Fisher's PLSD post hoc analysis or unpaired t-tests. Drugs: All drugs were prepared in physiological saline and all injections were administered intraperitoneally (i.p.) in volumes of 0.1 cc per […] body weight unless otherwise noted. Fluoxetine hydrochloride (Flx): Flx (BioTrend Chemicals AG, BG197, Zurich, Germany) was administered in the drinking water (18 mg/kg/day) for 3 weeks before the start of CORT. […] (R,S)-ketamine (K): (R,S)-ketamine (Ketaset III, Ketamine HCl injection, Fort Dodge Animal Health, Fort Dodge, Iowa) was administered in a single dose at 30 mg/kg of body weight 1 week before the start of CFC. […] PF-04995274: PF-04995274 (Sigma, Catalog No. 1331782-27-4, St. Louis, Mo.) was administered a single dose at 3 or 10 mg/kg of body weight 1 week before the start of CFC. PF-04995274 was dissolved in saline using an ultrasonic homogenizer (BioLogics, Model 3000, Manassas, Va.). Osmotic minipump implantation: ALZET osmotic minipumps (Model 2004, […], 28 days) were implanted subcutaneously under isoflurane anesthesia as previously described [S2]. Osmotic minipumps were rotated under the skin two to three times per week. Behavioral Assays: All experiments were approved by the Institutional Animal Care and Use Committee (IACUC) at the New York Psychiatric Institute (NYSPI). […] Videos were scored using ANY-maze behavior tracking software (Stoelting, Wood Dale, Ill.). […]
# 129S6/SvEv mice [1] = assay: Elevated plus maze (EPM) after CFC; format: in vivo
# Experimental: (§1) This chronic CORT elevation dysregulates the hypothalamic-pituitary-adrenal axis (HPA) in a manner similar to that observed in clinical depression. The dose and duration of CORT treatment was selected based on previous studies. CORT (35 μg/ml, equivalent to about 5 mg/kg/day) dissolved in 0.45% hydroxypropyl-o-cyclodextrin (0-CD) or vehicle (VEH) (0.45% j-CD) was available ad libitum in the drinking water in opaque bottles to protect it from light. VEH- and CORT-treated water was changed every 3 days to prevent possible degradation. Contextual Fear Conditioning (CFC): A 3-shock CFC procedure was administered as previously published. Briefly, mice were placed into context A and administered 3 2-s shocks (0.75 mA) at 180 s, 240 s or 300 s following placement into context A. Mice were removed from the context 15 s following the termination of shock (at 317 s). For context retrieval, mice were placed back into context A for 300 s. Electrophysiology: Electrophysiology was conducted as previously described. Statistical Analysis: Results from data analyses are expressed as means±SEM. Alpha was set to 0.05 for all analyses. Data were analyzed using GraphPad Prism v7.0 or v8.0. For all experiments, unless otherwise noted, one- or two-way ANOVAs with repeated-measures were applied to the data as appropriate. Significant main effects and/or interactions were followed by Fisher's PLSD post hoc analysis or unpaired t-tests. Drugs: All drugs were prepared in physiological saline and all injections were administered intraperitoneally (i.p.) in volumes of 0.1 cc per […] body weight unless otherwise noted. Fluoxetine hydrochloride (Flx): Flx (BioTrend Chemicals AG, BG197, Zurich, Germany) was administered in the drinking water (18 mg/kg/day) for 3 weeks before the start of CORT. […] (R,S)-ketamine (K): (R,S)-ketamine (Ketaset III, Ketamine HCl injection, Fort Dodge Animal Health, Fort Dodge, Iowa) was administered in a single dose at 30 mg/kg of body weight 1 week before the start of CFC. […] PF-04995274: PF-04995274 (Sigma, Catalog No. 1331782-27-4, St. Louis, Mo.) was administered a single dose at 3 or 10 mg/kg of body weight 1 week before the start of CFC. PF-04995274 was dissolved in saline using an ultrasonic homogenizer (BioLogics, Model 3000, Manassas, Va.). Osmotic minipump implantation: ALZET osmotic minipumps (Model 2004, […], 28 days) were implanted subcutaneously under isoflurane anesthesia as previously described [S2]. Osmotic minipumps were rotated under the skin two to three times per week. Behavioral Assays: All experiments were approved by the Institutional Animal Care and Use Committee (IACUC) at the New York Psychiatric Institute (NYSPI). Elevated Plus Maze (EPM): Testing was performed as previously described [S3]. Briefly, the maze is a plus-cross-shaped apparatus consisting of four arms, two open and two enclosed by walls, linked by a central platform at a height of 50 cm from the floor. Mice were individually placed in the center of the maze facing an open arm and were allowed to explore the maze for 5 min. The time spent in and the number of entries into the open arms was used as an anxiety index. Videos were scored using ANY-maze behavior tracking software (Stoelting, Wood Dale, Ill.). Novelty-Suppressed Feeding: The NSF is a conflict test that elicits competing motivations: the drive to eat and the fear of venturing into the center of a brightly lit arena. The latency to feed is used as an index of anxiety-like behavior, because classical anxiolytic drugs decrease this measure. The NSF test was carried out during an 8 min period as previously described [S3]. Briefly, the testing apparatus consisted of a plastic box (50×50×20 cm), the floor of which was covered with approximately 2 cm of bedding. For 129S6/SvEv experiments, mice were food restricted for 12 h. For the C57BL/6N experiments, mice were food restricted for 24 h. […]
# 129S6/SvEv mice [2] = assay: Novelty-suppressed feeding (NSF) after CFC; format: in vivo
# Experimental: as §1
# DRN 5-HT neurons = assay: In vivo electrophysiological recordings of DRN 5-HT neurons; parameters: species or system mice; conditions: RS67333 1.5 mg/kg i.p.; after vs before administration
# Experimental: FIGS. 7A-7G. Acute 5-HT4 receptor stimulation induces fast anxiolytic-like effects on 5-HT function through a modulation of the mPFC in an anxious BALB/cJRj mouse strain. (7A) Before the administration of RS67333 (RS, 1.5 mg/kg), different tracks were performed to record 5-HT neurons for 30 min. At the end of this period, RS67333 was administered i.p. and 30 min after, two or three subsequent tracks were realized. (7B) Discharge frequency of DRN 5-HT neurons is assessed as mean firing rate. The number of neurons tested is indicated in each histogram (n=25 and 26 before and after RS injection for a total of n=5 mice). Data are mean±[…] of DRN 5-HT neurons determined before the administration of RS67333. (7C) Typical recordings of DRN 5-HT neurons in the different experimental conditions. Histograms in the upper panels represent the number of action potentials (APs) per 10 seconds (scale bar). […] (7E) Cortical 5-HT depletion by p-CPA pre-treatment is measured as mean 5-HT levels (n=6-8 mice per group). (7F and 7G) Anxiety is measured in the elevated plus maze (EPM) as mean time or percent time spent in the open arms (F and inset), as mean ratio ambulatory distance in open arms/total distance (7G) and as mean total ambulatory distance (inset) (n=8-11 mice per group). […]
# [3] = female 129S6/SvEv, 1.5 or 10 mg/kg
# [4] = FIG. 3 cohort, FIG. 3M, Fisher's PLSD
compound,measurement,setting,value
"CCCCN1CCC(CCC(=O)c2cc(Cl)c(N)cc2OC)CC1.Cl [RS-67,333, 1-(4-amino-5-chloro-2-methoxyphenyl)-3-[1(n-butyl)-4-piperidinyl]-1-propanone HCl]",entries into the open arms of the EPM vs CORT+Veh,C57BL/6NTac mice,significantly more entries
same,time spent in the open arms of the EPM vs VEH+Veh,C57BL/6NTac mice,did not alter
same,"p, EPM Time in Open, Saline vs. RS67333 (10 mg/kg)","129S6/SvEv mice [1]; FIG. 2J, t-test",0.2069
same,"p, EPM Entries into Open, Saline vs. RS67333 (10 mg/kg)","129S6/SvEv mice [1]; FIG. 2K, t-test",0.3584
same,entries into the open arms of the EPM,129S6/SvEv mice [1]; [3],comparable
same,time spent in the open arms of the EPM,129S6/SvEv mice [1]; [3],comparable
same,entries into the open arms of the EPM vs saline,"129S6/SvEv mice [1]; male 129S6/SvEv, 10 mg/kg",neither in the open arms nor entries into the open arms of the maze was significantly different
same,time in the open arms of the EPM vs saline,"129S6/SvEv mice [1]; male 129S6/SvEv, 10 mg/kg",neither in the open arms nor entries into the open arms of the maze was significantly different
same,"p, NSF Latency of feed, Saline vs. RS67333 (10 mg/kg)","129S6/SvEv mice [2]; FIG. 2M, t-test",0.0108
same,"p, NSF Food Eaten (g), Saline vs. RS67333 (10 mg/kg)","129S6/SvEv mice [2]; FIG. 2N, t-test",0.3871
same,"p, NSF Body Weight, Saline vs. RS67333 (10 mg/kg)","129S6/SvEv mice [2]; FIG. 2O, t-test",0.8829
same,"p, NSF Latency to feed (sec), RS67333 (1.5 mg/kg) vs. RS67333 (10 mg/kg)",129S6/SvEv mice [2]; [4],0.0820
same,"p, NSF Latency to feed (sec), Saline vs. RS67333 (10 mg/kg)",129S6/SvEv mice [2]; [4],0.0010
same,"significance (* column), NSF Latency to feed (sec), Saline vs. RS67333 (1.5 mg/kg)","129S6/SvEv mice [2]; FIG. 3 cohort, FIG. 3M, Fisher's PLSD, p cell empty",ns
same,latency to feed (NSF),"129S6/SvEv mice [2]; female 129S6/SvEv, 10 mg/kg",significantly reduced latency to feed
same,latency to approach the pellet (NSF) vs saline,"129S6/SvEv mice [2]; male 129S6/SvEv, 10 mg/kg",significantly reduced latency
same,increase of the discharge frequency of DRN 5-HT neurons,DRN 5-HT neurons,63%
